In PMC6264335, “Synthesis of Quinolin-2-one Alkaloid Derivatives and Their Inhibitory Activities against HIV-1 Reverse Transcriptase” (Molecules, 2011):
“And” between values parts separate entries of the source, which are not always exact repeats. Equal entries are not always repeated.

Target: HIV-1 reverse transcriptase (RT)
Experiment: not given
Parameters: method as in PMID 8778237
Details: cited from earlier work

Question: Which IC50 does the source give for CC(C)=CCOc1c(CC=C(C)C)c(=O)[nH]c2ccccc12 [Compound 3] here?
Answer: 8 µM

Target: recombinant HIV-1 RT (Human immunodeficiency virus type 1 group M subtype B, UniProt P04585)
Experiment: HIV-1 RT inhibitory assay (ELISA RT kit, Roche)
Details: IC50 (effective concentration that inhibits 50% of HIV-1 RT), mean of two independent experiments
Description: HIV-1 reverse transcriptase (RT) activity was measured using a commercially available ELISA RT kit (Roche) according to the instructions of the manufacturer. The compounds were incubated with DIG-labeled reaction mixture at 37 °C for 2 h, then anti-DIG-POD solution was added, followed by substrate ABTS.

Question: With Cc1cc(C)cc(S(=O)(=O)c2cc(=O)[nH]c3ccc(Cl)cc23)c1 [Compound 4c2, 6-Chloro-4-(3,5-dimethylphenylsulfonyl)quinolin-2(1H)-one] as the compound, how does the IC50 read?
Answer: 10 µM

Question: Which IC50 does the source give for O=c1cc(-c2ccccc2)c2cc(Cl)ccc2[nH]1 [Compound 5a, 6-Chloro-4-phenylquinolin-2(1H)-one] here?
Answer: > 100 µM

Question: For O=c1cc([S+]([O-])c2ccccc2)c2cc(Cl)ccc2[nH]1 (stereo not shown) [Compound 4b1, 6-Chloro-4-(phenylsulfinyl)quinolin-2(1H)-one], which IC50 is on record?
Answer: 8.9 µM

Question: With O=c1cc(Sc2ccccc2)c2cc(Cl)ccc2[nH]1 [Compound 4a1, 6-Chloro-4-(phenylthio)quinolin-2(1H)-one] as the compound, how does the IC50 read?
Answer: 5.6 µM

Question: Which IC50 does the source give for Cc1cc(C)cc(Oc2cc(=O)[nH]c3ccc(Cl)cc23)c1 [Compound 4d2, 6-Chloro-4-(3,5-dimethylphenoxy)quinolin-2(1H)-one] here?
Answer: 0.15 µM

Question: For Cc1cc(C)cc(Sc2cc(=O)[nH]c3ccc(Cl)cc23)c1 [Compound 4a2, 6-Chloro-4-(3,5-dimethylphenylthio)quinolin-2(1H)-one], which IC50 is on record?
Answer: 0.21 µM

Question: Which IC50 does the source give for Cc1cc(C)cc([S+]([O-])c2cc(=O)[nH]c3ccc(Cl)cc23)c1 (stereo not shown) [Compound 4b2, 6-Chloro-4-(3,5-dimethylphenylsulfinyl)quinolin-2(1H)-one] here?
Answer: 2.6 µM

Question: With O=c1cc(Oc2ccccc2)c2cc(Cl)ccc2[nH]1 [Compound 4d1, 6-Chloro-4-phenoxyquinolin-2(1H)-one] as the compound, how does the IC50 read?
Answer: 3 µM

Question: With O=c1cc(-c2ccccc2F)c2cc(Cl)ccc2[nH]1 [Compound 5b, 6-Chloro-4-(2-fluorophenyl)quinolin-2(1H)-one] as the compound, how does the IC50 read?
Answer: > 100 µM

Question: With Cc1cc(C)cc(Sc2cc(=O)[nH]c3ccccc23)c1 [Compound 4a3, 4-(3,5-dimethylphenylthio)quinolin-2(1H)-one] as the compound, how does the IC50 read?
Answer: 13 µM and 18 µM

Question: Which IC50 does the source give for O=c1cc(S(=O)(=O)c2ccccc2)c2cc(Cl)ccc2[nH]1 [Compound 4c1, 6-Chloro-4-(phenylsulfonyl)quinolin-2(1H)-one] here?
Answer: 49 µM

Question: For O=c1cc(-c2ccccc2Cl)c2cc(Cl)ccc2[nH]1 [Compound 5c, 6-Chloro-4-(2-chlorophenyl)quinolin-2(1H)-one], which IC50 is on record?
Answer: > 100 µM
